Results reported in US20250332212A1, “METHOD FOR TREATING OR PREVENTING ALOPECIA” (Suzhou Mingren Pharmaceutical Biotechnology Co., Ltd., priority 2024, published 2025).

Legend:
[1] = background statement; cited from earlier work
[2] = target: type II 5α-reductase (Homo sapiens, UniProt P31213); conditions: in serum and scalp; cited from earlier work
[3] = tested on: TP-induced AGA model mice; assay: TP-induced AGA model, Animal model III (specific inhibition of SP1 by MTA); format: in vivo, C57BL/6J male mice; conditions: MTA 0.3 mg/kg/d intraperitoneally with 1% JP1
Text: To verify that JP1 promotes AGA follicle regeneration through the activation of the Wnt/β-catenin signaling pathway via the MAPK/E2F1/SP1 signaling axis, the example constructed a mouse model of AGA with specific inhibition of SP1 (FIG. 15A). The specific experimental details are described according to “Animal model III” of “1. TP-induced AGA model” in “Experimental Methods”.
To further confirm that JP1 promotes the growth of hair follicles on the back of AGA model mice through the SP1-regulated Wnt/β-catenin signaling pathway at the histomorphometric level, H&E staining was performed on the skin tissues of the model mice of Example 15 at different time points (days 4, 8, and 12 post-intervention).
The mice used in this study were 5-week-old C57BL/6J male mice (18-20 g), which were purchased from Jiangsu Jicui Pharmachem Biotechnology Co. All the animals used in the experiments were housed in the SPF-level environment of the Medical Laboratory Animal Center of Nanjing Medical University, and the relevant animal experimental operations were approved by the Animal Ethics Committee of Nanjing Medical University. The control group was left untreated, and the other groups were injected with TP subcutaneously on their backs every day. Two weeks later, the hair on the backs of the mice was shaved with an electric razor, covering an area of 2 cm×4 cm, and then the residual hair was removed with a hair removal cream. The subcutaneous injections of TP on the shaved backs of the mice in the AGA model was continued until the end of the experimental period, and the administration of TP in each of the treatment groups was begun on the 1st day of the dehairing process.
In addition to the normal control group (denoted as control) n=20, all mice injected subcutaneously with TP were randomly divided into the following groups (n=20): the model group (denoted as model), the 1% JP1 (skin-coated), and the 1% JP1+MTA group. […] MTA was administered at a dose of 0.3 mg/kg/d, qd, intraperitoneally, 100 μL/dose.
Mice were weighed every two days during the experiment. Skin color was assessed against skin score charts. The mice were euthanized and treated at the end of the experiment, and skin tissues were taken from the dorsal decorticated area of the mice. Some of the tissues were fixed with 4% paraformaldehyde solution and then paraffin sections were made for H&E or immunofluorescence staining, etc., and some of the tissues were stored in the refrigerator at −80° C. for relevant molecular expression assays (qRT-PCR, Western Blot, IP, etc.).
8.1) Sampling and fixation: After the experiment, skin tissue was taken from the depilated area on the back of the mouse and placed in a 10 mL EP tube. 4% paraformaldehyde was added to the EP tube, and all tissues were immersed to denature and coagulate the proteins of the skin tissue. The original morphology and structure of the cells were maintained.
8.6) H&E staining: the sections pretreated in distilled water were put into aqueous hematoxylin solution for a few minutes for staining. The color was separated in acid water and ammonia for a few seconds each. After rinsing in running water for 1 h, the sections were placed in distilled water for a few moments. The sections were dehydrated in 70% and 90% alcohol for 10 min each, and stained in alcoholic eosin stain for 2-3 min.

[4] = tested on: SP1, Wnt10a, Wnt10b and β-catenin; assay: Immunoblotting of SP1 and downstream molecules in skin, Animal model III; format: in vivo, mouse; conditions: dorsal skin
Procedure: 4.1) Protein extraction: 70 mg of skin tissue was placed in a 1.5 mL centrifuge tube, and 500 μL of tissue lysate RIPA containing protease inhibitor and phosphatase inhibitor was added. The tissue was placed on an ice box, pulverized by a tissue grinder, and then ultrasonically crushed to obtain a tissue suspension, which was then placed in a rotary windmill at 4° C. to be lysed for 2 h. The centrifuge was set at 12,000×g, 4° C., centrifuged for 15 min, and the supernatant was collected as the total protein.
5.1) Heating of protein samples: the total protein content of each tissue was 50 μg; calculate the volume of a corresponding protein sample, make up the volume with saline to 16 μL, then add 4 μL of 5×SDS sampling buffer, heat at 100° C. for 5 min, and then cool at room temperature and store at −20° C.
5.7) Primary antibody incubation: the cut protein bands were placed into the corresponding primary antibody and incubated at 4° C. on a shaker overnight, washed with TBST 3 times for 10 min/time.

type II 5α-reductase, sequence (P31213 whole entry): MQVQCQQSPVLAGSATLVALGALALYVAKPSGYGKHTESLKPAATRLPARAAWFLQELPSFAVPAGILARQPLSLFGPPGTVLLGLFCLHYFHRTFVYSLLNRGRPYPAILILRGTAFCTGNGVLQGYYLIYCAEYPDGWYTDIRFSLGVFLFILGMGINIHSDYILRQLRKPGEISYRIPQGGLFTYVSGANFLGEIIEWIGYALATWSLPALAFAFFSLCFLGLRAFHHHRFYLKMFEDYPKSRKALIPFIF

Molecule: Nc1cc(N2CCCCC2)nc(N)[n+]1[O-] [minoxidil]
- adverse reactions [1]: itchiness of the scalp, dermatitis, and localized hirsutism

Molecule: CC(C)(C)NC(=O)[C@H]1CC[C@H]2[C@@H]3CC[C@H]4NC(=O)C=C[C@]4(C)[C@H]3CC[C@]12C [finasteride]
- reduction of double hydrogen testosterone (DHT) [2]: more than 60%

Molecule: Mithramycin A [MTA, reference compound]
- effect of SP1 inhibition on hair follicle growth promotion by JP1 [3]: blocked the hair follicle growth-promoting effect of JP1
- effect of MTA on JP1-induced expression of SP1 downstream molecules [4]: block the effect of JP1 on the expression of SP1 downstream molecules
